Data published in patent US10125125B2, “N-(heteroaryl)-sulfonamide derivatives useful as S100-inhibitors” (Active Biotech AB, priority 2013, dated 2018).
Like-named read-outs stand apart in the source and are kept apart here.

Key:
[1] = Prodrug assay: plasma concentrations of prodrugs and demethylated parents after cassette dosing, LC-MS; assay type: in vivo, C57 Bl/6 mice; details: C57 Bl/6, mouse, solution, read-out: Parent (demethylated compound) Conc. in plasma after prodrug dosing
Procedure: ABR-239313, 239470 and 239749 were administered to seven C57 Bl/6 mice as a cassette formulation either intravenously (4 animals, nominal 1 mg/kg) or per oral (3 animals, nominal 5 mg/kg).
Blood samples were collected at time points ranging from 5 minutes to 7 hours after administration. After sample withdrawal, plasma was directly separated and frozen until analysis.
The plasma as well as the formulation samples were analyzed with respect to the concentration of ABR-239313, 239470, 239749 and the corresponding demethylated compounds, i.e. Examples 9, 75 and 73 (ABR-239247, 239417 and 239167) by means of LC-MS.
The samples were precipitated with acidified acetonitrile and centrifuged prior to injection on LC-MS system (consisting of a triple quadrupole instrument operated in negative MRM ionization mode, and a fast-gradient reversed-phase LC on a Symmetry Shield RP18, 2×30 mm, 3.5 um column).
In Table 3 the concentrations of each analyte are presented.

[2] = target: biotinylated human S100A9 : rhRAGE-Fc interaction (Homo sapiens (Human), UniProt P06702); experiment: AlphaScreen inhibition assay, Biot-hS100A9:hRAGE-Fc (S100A9-RAGE inhibition assay); assay type: binding
Chain of biotinylated human S100A9 : rhRAGE-Fc interaction (P06702 whole entry): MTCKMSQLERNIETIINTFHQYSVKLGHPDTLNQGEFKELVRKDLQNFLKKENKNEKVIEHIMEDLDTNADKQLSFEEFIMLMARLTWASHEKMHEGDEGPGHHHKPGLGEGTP
Text: FIG. 1 is a schematic representation of an assay of the inhibition of the interaction between biotinylated human S100A9 and human RAGE-Fc using a small molecule S100A9 binder.
Inhibition Assay, Biot-hS100A9:hRAGE-Fc
The AlphaScreen (Amplified Luminescent Proximity Homogeneous Assay) contains two types of beads, Alpha Donor beads and Acceptor beads (PerkinElmer). Upon laser excitation at 680 nm a photosensitizer in the Donor bead converts ambient oxygen to a more excited singlet state. The singlet oxygen molecule diffuses (maximum 200 nm) to react with a thioxene derivative in the Acceptor bead and generates a chemiluminescence reaction. Fluorophores in the Acceptor bead subsequently emit light at 520-620 nm which can be detected in the EnVision® Multilabel plate Reader (PerkinElmer). The beads are light sensitive and all work with the beads is performed under subdued light conditions or using green filters on light sources (Roscolux Chroma Green #389, Rosco).
In the AlphaScreen Inhibition Assay described here, protein A (Staphylococcus aureus) conjugated Acceptor beads are used together with streptavidin coated Donor beads (Perkin Elmer 6760617M). The Acceptor beads are pre-incubated with Fc-tagged recombinant human RAGE (rhRAGE-Fc) allowing binding of the rhRAGE-Fc to protein A on the beads. Biotinylated human S100A9 (biot-hS100A9) is pre-incubated with the low molecular test compounds. The pre-mixes are then added to the wells of a micro-plate and incubated allowing interaction between biot-hS100A9 and rhRAGE-Fc. Subsequent addition of streptavidin coated Donor beads causes binding of the streptavidin to the biotinylated hS100A9. After an additional incubation the signal is measured.
Without inhibitory compounds, the interaction of biot-hS100A9 to rhRAGE-Fc will bring the Acceptor and Donor beads in close proximity thus generating a high signal. With an inhibitor present the complex will not form resulting in a decreased signal.
Chemicals and reagents. • AlphaScreen® General IgG (Protein A) Detection Kit, (PerkinElmer 6760617M) • HBS-P buffer (GE Healthcare, BR-1003-68) • HBS-N buffer (GE Healthcare, BR-1003-69) • CaCl2 in HBS-P • ZnCl2 in Milli-Q water • DMSO • Biotinylated hS100A9, (biotinylated via cystein by EZ-link Iodoacetyl-PEG2-Biotin reagent (Pierce no. 21334), in HBS-N • rhRAGE-Fc (R&D Systems, 1145-RG-50), in HBS-P
The AlphaScreen assay method is used for screening of the inhibitory effect of different compound samples at fixed concentrations or for IC50 determination by varying the compound concentrations. Samples of test compounds and references are prepared from solutions in DMSO. Relevant reference inhibitors and DMSO are used as controls for defined inhibition and non-inhibition, respectively in the assay. The percent inhibition in assay for test compounds and references are calculated by comparing their obtained assay signals with the signal values for the control with only DMSO (no compound).
Assay concentration of biotinylated hS100A9 and rhRAGE-Fc are batch dependent, and are determined and defined by separate cross-titration experiments using this AlphaScreen inhibition method to verify the optimal setup regarding signal strength and achievement of a defined inhibition with relevant reference compounds. The Final assay concentrations of Acceptor and Donor beads are 20 μg/mL.
Experimental Set Up for Screening, Preparation of Solutions and Beads.
Assay buffer is prepared by adding CaCl2 and ZnCl2 to HBS-P and is used freshly prepared in the experiment.
Biotin-hS100A9 solution for the experiment is prepared by dilution of appropriate amount of stock solution biot-hS100A9 in assay buffer (with CaCl2 and ZnCl2) and incubation in room temperature for 30 minutes.
rhRAGE-Fc solution for the experiment is prepared by dilution appropriate amount of rhRAGE-Fc stock in assay buffer.
Protein A Acceptor beads are diluted in assay buffer and are added to an equal volume of the prepared diluted rhRAGE-Fc solution.

[3] = intravenous, i.v. cassette of prodrugs, nominal 1 mg/kg
[4] = oral, p.o. cassette of prodrugs, nominal 5 mg/kg

Structure (SMILES) | concentration at 0.083 h [1, 3] [nM] | concentration at 0.5 h [1, 3] [nM] | concentration at 1 h [1, 3] [nM] | concentration at 2 h [1, 3] [nM] | concentration at 4 h [1, 3] [nM] | concentration at 7 h [1, 3] [nM] | concentration at 0.5 h [1, 4] [nM] | concentration at 1 h [1, 4] [nM] | concentration at 2 h [1, 4] [nM] | concentration at 4 h [1, 4] [nM] | concentration at 7 h [1, 4] [nM] | IC50 [2] [nM]
O=S(=O)(Cc1cc(Cl)cc(Cl)c1)Nc1ncc(Cl)cc1O [Example 9, N-(5-chloro-3-hydroxypyridin-2-yl)-1-(3,5-dichlorophenyl)methanesulfonamide] | 44 | 5 | 3 | 6 | 4 | 4 | 45 | 26 | 21 | 12 | 19 | 120
O=S(=O)(Cc1ccc(Cl)c(Cl)c1)Nc1ncc(Br)nc1O [Example 75, N-(5-bromo-3-hydroxypyrazin-2-yl)-1-(3,4-dichlorophenyl)methanesulfonamide] | 120 | 320 | 320 | 320 | 210 | 200 | 570 | 860 | 800 | 630 | 1100 | 250
